Reference: US20090264469A1, “NOVEL DICARBOXYLIC ACID DERIVATIVES” (BIO-PROJET, priority 2004, published 2009)

Columns and labels:
Human S1P2 receptor = target: T1, Human S1P2 receptor (Homo sapiens, UniProt O95136); assay: GTP-γ-35S binding, agonist activity on S1P2 receptor; type: biochemical; conditions: for EC50: membranes of transfected HEK 293 or CHOK1 cells, [35S]GTP-γ-S binding; for intrinsic activity (i.a.) S1P2: relative to the maximal stimulation elicited by S1P
T1 construct: expressed in transfected cells; host or cells: HEK 293 or CHOK1 cells (membranes)
Source text: (§1) Human S1P1-5 receptor subtypes were stably expressed in HEK 293 or CHOK1 cells following transfection with corresponding plasmid constructs. Although the native cells somewhat respond to S1P, the level of expression and responsiveness of the antibiotic-resistant transfected cell lines that were selected is much higher.
(§2) When cultivated cells reached 80% confluence, they were collected and, after lysis, cell membranes were collected by centrifugation and washed in buffer containing antiproteases.
(§3) GTP-γ-35 S binding was performed using ˜5 μg protein of cell membranes suspended in 50 mM tris-HCl pH 7.5 containing 10 mM Mg Cl2, 100 mM NaCl and 10 μM GDP. The radioligand was 0.025 nM [35S] GTP-γ-S and non specific binding determined in the presence of 10 μM non-radioactive GTP-γ-S. S1P and receptor agonists enhance the specific binding whereas inverse agonists reduce it. The maximal stimulation elicited by S1P was taken as a reference to define full or partial agonism and calculate the intrinsic activity (i.a.) of compounds.

Human S1P3 receptor = target: T2, Human S1P3 receptor (Homo sapiens, UniProt Q99500); assay: GTP-γ-35S binding, agonist activity on S1P3 receptor; type: biochemical; conditions: for EC50: membranes of transfected HEK 293 or CHOK1 cells, [35S]GTP-γ-S binding; for intrinsic activity (i.a.) S1P3: relative to the maximal stimulation elicited by S1P
T2 construct: expressed in transfected cells; host or cells: HEK 293 or CHOK1 cells (membranes)
Source text: as §1, §2, §3

Human S1P1 receptor = target: T3, Human S1P1 receptor (Homo sapiens, UniProt P21453); assay: GTP-γ-35S binding, agonist activity on S1P1 receptor; type: biochemical; conditions: for EC50: membranes of transfected HEK 293 or CHOK1 cells, [35S]GTP-γ-S binding; for intrinsic activity (i.a.) S1P1: relative to the maximal stimulation elicited by S1P
T3 construct: expressed in transfected cells; host or cells: HEK 293 or CHOK1 cells (membranes)
Source text: as §1, §2, §3

circulating lymphocytes = conditions: in vivo; cited from earlier work
[1] = J. Am. Soc. Nephrol., 13, 1073, 2002; cited from earlier work

T3 sequence (P21453 whole entry): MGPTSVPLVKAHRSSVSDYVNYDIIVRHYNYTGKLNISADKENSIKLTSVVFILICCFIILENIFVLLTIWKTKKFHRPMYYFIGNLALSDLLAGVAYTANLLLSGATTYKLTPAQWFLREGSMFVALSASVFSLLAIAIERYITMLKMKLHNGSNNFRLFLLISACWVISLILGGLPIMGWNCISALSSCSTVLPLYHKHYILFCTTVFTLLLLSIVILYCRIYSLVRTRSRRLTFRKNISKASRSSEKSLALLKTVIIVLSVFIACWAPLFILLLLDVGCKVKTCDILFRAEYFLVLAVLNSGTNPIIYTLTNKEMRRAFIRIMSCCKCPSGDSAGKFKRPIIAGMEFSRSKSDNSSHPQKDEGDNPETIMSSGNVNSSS
T2 sequence (Q99500 whole entry): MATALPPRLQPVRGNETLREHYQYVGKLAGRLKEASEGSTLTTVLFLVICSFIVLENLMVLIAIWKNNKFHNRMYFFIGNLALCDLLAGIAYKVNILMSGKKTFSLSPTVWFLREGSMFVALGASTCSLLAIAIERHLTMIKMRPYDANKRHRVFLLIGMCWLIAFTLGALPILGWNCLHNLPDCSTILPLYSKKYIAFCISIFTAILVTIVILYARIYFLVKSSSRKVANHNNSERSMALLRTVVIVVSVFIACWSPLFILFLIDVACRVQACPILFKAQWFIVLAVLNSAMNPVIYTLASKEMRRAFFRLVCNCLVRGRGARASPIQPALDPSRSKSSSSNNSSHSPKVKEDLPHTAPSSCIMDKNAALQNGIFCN
T1 sequence (O95136 whole entry): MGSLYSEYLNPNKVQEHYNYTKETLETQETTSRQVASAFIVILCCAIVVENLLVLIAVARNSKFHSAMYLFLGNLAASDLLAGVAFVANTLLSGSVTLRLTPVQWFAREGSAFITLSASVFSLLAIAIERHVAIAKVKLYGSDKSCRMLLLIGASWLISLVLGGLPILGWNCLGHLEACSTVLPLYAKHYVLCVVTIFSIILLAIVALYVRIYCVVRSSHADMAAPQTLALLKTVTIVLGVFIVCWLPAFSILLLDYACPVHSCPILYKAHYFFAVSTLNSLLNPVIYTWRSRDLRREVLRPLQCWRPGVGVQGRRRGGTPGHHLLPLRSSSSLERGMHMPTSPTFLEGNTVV

EC50 (Human S1P2 receptor) [nM] | intrinsic activity (i.a.) S1P2 (Human S1P2 receptor) | EC50 (Human S1P3 receptor) [nM] | intrinsic activity (i.a.) S1P3 (Human S1P3 receptor) | EC50 (Human S1P1 receptor) [nM] | intrinsic activity (i.a.) S1P1 (Human S1P1 receptor) | Compound | circulating lymphocytes (circulating lymphocytes) | adverse event [1]
4 | 1 | > 1000 | ~0.3 | 6 | 1 | CCCCCCCCCc1ccc(CNC2CCC(C(=O)O)(C(=O)O)C2)cc1 (centres unmarked) [Example 3, 3-(4-nonylbenzylamino)cyclopentane-1,1-dicarboxylic acid] |  | 
5 | 1 | > 1000 | ~0.3 | 13 | 1 | CCCCCCCCCCc1ccc(CNC2CCC(C(=O)O)(C(=O)O)C2)cc1 (centres unmarked) [Example 12, 3-(4-decylbenzylamino)cyclopentane-1,1-dicarboxylic acid] |  | 
 |  |  |  |  |  | CCCCCCCCc1ccc(CCC(N)(CO)CO)cc1 [FTY 720] | decrease | transient asymptomatic bradycardia
